From the supplement of paper PMC10307832

Key:
Assay in all cases: relative viability (nuclei count vs DMSO), 5 days (fraction); higher = more cells survive
[1] = compound: CCn1c(-c2nonc2N)nc2cnc(Oc3cccc(NC(=O)c4ccc(OCCN5CCOCC5)cc4)c3)cc21 + Cc1nc(Nc2ncc(C(=O)Nc3c(C)cccc3Cl)s2)cc(N2CCN(CCO)CC2)n1 [Dasatinib] (partner 0.075 µM)
Procedure, shortened: (§1)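 Medians of duplicate plates are given as relative viability. That measure is the nuclei count in treated wells divided by the count in vehicle wells. Counts were taken on 4× images of lung cancer cell lines in 1536-well plates, 5 days after pin-tool dosing the day after seeding with one drug alone or a fixed anchor-drug dose plus five library-drug doses (not always all listed) in √10 steps.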

[2] = compound: CCn1c(-c2nonc2N)nc2cnc(Oc3cccc(NC(=O)c4ccc(OCCN5CCOCC5)cc4)c3)cc21 + CC(=O)Nc1cccc(-n2c(=O)n(C3CC3)c(=O)c3c(Nc4ccc(I)cc4F)n(C)c(=O)c(C)c32)c1 [Trametinib] (partner 0.02 µM)
Procedure, shortened: as §1

[3] = compound: CCn1c(-c2nonc2N)nc2cnc(Oc3cccc(NC(=O)c4ccc(OCCN5CCOCC5)cc4)c3)cc21 + CS(=O)(=O)CCNCc1ccc(-c2ccc3ncnc(Nc4ccc(OCc5cccc(F)c5)c(Cl)c4)c3c2)o1 [Lapatinib] (partner 2 µM)
Procedure, shortened: as §1

[4] = compound: CCC1=CN=CN=C1N2CCN(CC2)CC3=NC4=C(N3)C=C(C=C4)C(F)(F)F + CS(=O)(=O)CCNCc1ccc(-c2ccc3ncnc(Nc4ccc(OCc5cccc(F)c5)c(Cl)c4)c3c2)o1 [Lapatinib] (partner 2 µM)
Procedure, shortened: as §1

Cell Line	relative viability ([1]; first compound 0.04 µM)	relative viability ([1]; first compound 0.1265 µM)	relative viability ([1]; first compound 0.4 µM)	relative viability ([1]; first compound 1.265 µM)	relative viability ([1]; first compound 4 µM)	relative viability ([2]; first compound 0.04 µM)	relative viability ([2]; first compound 0.1265 µM)	relative viability ([2]; first compound 0.4 µM)	relative viability ([2]; first compound 1.265 µM)	relative viability ([2]; first compound 4 µM)	relative viability ([3]; first compound 0.04 µM)	relative viability ([3]; first compound 0.1265 µM)	relative viability ([3]; first compound 0.4 µM)	relative viability ([3]; first compound 1.265 µM)	relative viability ([3]; first compound 4 µM)	relative viability ([4]; first compound 0.04 µM)	relative viability ([4]; first compound 0.1265 µM)	relative viability ([4]; first compound 0.4 µM)	relative viability ([4]; first compound 1.265 µM)	relative viability ([4]; first compound 4 µM)
201T	0.644	0.682	0.443	0.588	0.506	0.719	0.706	0.749	0.697	0.698	1.07	0.967	0.78	0.911	0.868	1.01	0.992	1.03	0.947	1.09
NCI-H2009	0.266	0.144	0.136	0.148	0.152	0.199	0.192	0.161	0.16	0.142	1.02	0.957	0.575	0.312	0.314	1.07	1	0.894	0.715	0.808
NCI-H1395	0.398	0.37	0.342	0.317	0.345	1.18	0.986	0.849	0.622	0.717	1.22	0.92	0.632	0.418	0.57	0.929	0.938	1.04	0.957	1.05
NCI-H23	0.927	0.758	0.294	0.611	0.543	0.413	0.405	0.407	0.281	0.305	1.34	1.17		0.688	0.698	1.2	1.21	0.966	0.982	1.11
LU99A	0.573	0.467	0.352	0.367	0.388	0.569	0.595	0.567	0.584	0.497	1.15	0.845	0.641	0.862	0.694	0.964	0.989	0.95	0.926	0.948
NCI-H1437	0.629	0.373	0.148	0.363	0.35	0.599	0.556	0.517	0.435	0.403	0.826	0.679	0.58	0.536	0.5	0.777	0.668	0.74	0.635	0.641
EKVX	0.565	0.277	0.434	0.457	0.427	0.411	0.389	0.404	0.371	0.415	0.446	0.221	0.177	0.197	0.229	0.212	0.198	0.227	0.174	0.216
NCI-H596	0.682	0.611	0.495	0.469	0.546	0.797	0.804	0.825	0.555	0.657	1.04	0.942	0.978	0.87	0.97	0.982	1.13	0.927	0.817	1.23
LCLC-97TM1	0.969	0.929	0.673	0.99	0.811	0.257	0.192		0.197	0.19	1.78	1.54		1.74	1	1.02	0.697	0.828	0.877	0.8
NCI-H2170	0.553	0.676	0.665	0.515	0.443	0.885	0.941	0.96	0.926	0.974	0.261	0.278	0.274	0.258	0.27	0.277	0.263	0.267	0.27	0.296
NCI-H1793	0.385	0.284	0.208	0.183	0.194	0.356	0.476	0.425	0.401	0.327	0.555	0.569	0.582	0.414	0.418	0.581	0.652	0.534		0.635
NCI-H322M	0.255	0.216	0.231	0.274	0.259	0.631	0.604	0.522	0.487	0.57	0.572	0.659	0.437	0.876	0.783	0.631	0.571	0.575	0.499	0.682
PC-3 [JPC-3]	0.981	0.902	0.605	0.728	0.648	0.693	0.589	0.591	0.598	0.537	0.527	0.499	0.438	0.573	0.522	0.473	0.425	0.374	0.441	0.523
EPLC-272H	0.513	0.326	0.159	0.263	0.227	0.365	0.347	0.256	0.213	0.197	1.46	0.903	0.796	0.187	0.827	0.854	0.807	0.853	0.913	0.975
A-427	0.694	0.487	0.375	0.269	0.224	0.879	0.839	0.727	0.381	0.373	1.2	1.04	0.903	0.993	0.582	0.795	0.991	1.01	0.911	1.05
